In brackets after ≈: the same amount, converted by molar mass. Read-outs that look alike come from different tables or passages of the source. Where a SMILES comes first, the peptide text is derived from it. The star is where a group is joined. X2 = CCCCN(CCc1c2c(nc3ccccc13)-c1cc3c(c(=O)n1C2)COC(=O)[C@]3(O)CC)*; X4 = CCCN(CCc1c2c(nc3ccccc13)-c1cc3c(c(=O)n1C2)COC(=O)[C@]3(O)CC)*; X5 = CC[C@@]1(O)C(=O)OCc2c1cc1n(c2=O)Cc2c-1nc1ccccc1c2CCN(CC(C)C)*; Propanoyl(3-maleimido) = O=C1C=CC(=O)N1CCC(=O)*; PEG6 = NCCOCCOCCOCCOCCOCCOCCC(=O)O
Columns and labels:
[1] = test system: sarcoma SJSA-1 tumor model
Summary of the method: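 SJSA-1 cells (2×10^7, DMEM/10% FBS, under 15 passages) implanted subcutaneously in right chest of female BALB/c nude mice, 6-8 weeks old. At ≥100 mm^3, randomized three per group; dosing once weekly for three weeks, saline as control, day 1 = first treatment.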

[2] = test system: SKBR3 (breast cancer tissue); experiment: cells; format: cell-based; conditions: for IC50 Breast cancer tissue (SKBR3): CCK8, 48 h, Table 6
Summary of the method: (§1)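 5,000 cells/well; compound dilution series, triplicates; vehicle 0.1% DMSO; medium RPMI1640 or DMEM high glucose + 10% FBS + 1 mM pyruvate. 48 h, 37° C, 5% CO2. CCK8 ~2 h, OD450. IC50 calculated.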

[3] = test system: SJSA-1 (sarcoma tissue); experiment: cells; format: cell-based; conditions: for IC50 Sarcoma tissue (SJSA-1): CCK8, 48 h, Table 6
Summary of the method: as §1

[4] = test system: A2780 (ovarian cancer); experiment: cells; format: cell-based; conditions: for IC50 Ovarian cancer tissue (A2780): CCK8, 48 h, Table 6
Summary of the method: as §1

[5] = test system: A549 (non-small cell lung cancer); experiment: cells; format: cell-based; conditions: for IC50 Non-small cell lung cancer tissue (A549): CCK8, 48 h, Table 6
Summary of the method: as §1

[6] = Homogenate activation efficiency, heart tissue (Examples 28, 37); format: in vitro ADME; conditions: pH 5.0, 37° C., 2 h
[7] = test system: A2780 ovarian cancer tumor model; experiment: Efficacy in animal model of A2780 ovarian cancer, 30 mg/kg once a week for two weeks (Example 41); format: in vivo, BALB/c mice
Protocol: Test objective: To further compare the antitumor efficacy of different polypeptide Linkers in an animal tumor model of A2780 ovarian cancer.
Test drug: Polypeptide conjugate and normal saline control group.
8×10^6 corresponding cells were injected into right axillas of nude mice subcutaneously. […] The negative control group was administered normal saline. Administration was performed once a week for two weeks.

[8] = Tumor homogenate activation efficiency, breast cancer tissue (Examples 28, 37); format: in vitro ADME; conditions: pH 5.0, 37° C., 2 h
Summary of the method: (§2)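 1 mg/ml conjugate, pH 5.0 (50 mM MES, 250 mM NaCl); + 100 μg tissue homogenate; 37° C, 2 h. HPLC, release = Belotecan area / total Belotecan-containing area.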

[9] = Tumor homogenate activation efficiency, sarcoma tissue (Examples 28, 37); format: in vitro ADME; conditions: pH 5.0, 37° C., 2 h
Summary of the method: as §2

[10] = Tumor homogenate activation efficiency, colorectal cancer tissue (Example 37); format: in vitro ADME; conditions: pH 5.0, 37° C., 2 h; Table 10
Summary of the method: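 Polypeptide conjugate at 1 mg/ml in 50 mM MES, 250 mM NaCl, pH 5.0, incubated with 100 μg colorectal tumor tissue homogenate at 37° C for 2 h. HPLC read-out; release percentage = Belotecan peak area over total area of Belotecan and all Belotecan-containing compounds.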

[11] = test system: colo320 (colorectal cancer tissue); experiment: cells; format: cell-based; conditions: CCK8, 48 h; Table 6
Summary of the method: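 Colo320 cells, 5,000 per well, exposed to drug concentration series for 48 h at 37 °C, 5% CO2 (0.1% DMSO controls). Viability by CCK8, absorbance at 450 nm after about 2 h. Survival rates and IC50 calculated.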

[12] = 15 mg/kg once a week for three weeks, Table 2
[13] = 45 mg/kg once a week for three weeks, Table 2
[14] = 15 mg/kg once a week for three weeks, Table 7
[15] = 45 mg/kg once a week for three weeks, Table 7

Structure (SMILES): CC[C@@]1(O)C(=O)OCC2=C1C=C1c3nc4ccccc4c(CCN(C(=O)OCc4ccc(NC(=O)[C@H](CC(N)=O)NC(=O)[C@H](C)NC(=O)[C@H](C)NC(=O)CCOCCOCCOCCOCCOCCOCCNC(=O)CCN5C(=O)C=CC5=O)cc4)C(C)C)c3CN1C2 [MI-6PEG-AAN-PAB-Belotecan]
- Mouse weight (%) [1, 12]: +6%
- SJSA-1 (sarcoma tissue) mean tumor volume (mm^3) [1, 12]: 1357 mm^3
- SJSA-1 (sarcoma) Growth rate (%) [1, 12]: 1174.19%
- Mouse weight (%) [1, 13]: −5%
- SJSA-1 (sarcoma tissue) mean tumor volume (mm^3) [1, 13]: 873.5 mm^3
- SJSA-1 (sarcoma) Growth rate (%) [1, 13]: 753.02%
- IC50 SKBR3 (breast cancer tissue) ([2]; 48 h): 0.40 µg/mL (≈ 0.305 µM)
- IC50 SJSA-1 (sarcoma tissue) ([3]; 48 h): 0.26 µg/mL (≈ 0.198 µM)
- IC50 A2780 (ovarian cancer) ([4]; 48 h): 0.34 µg/mL (≈ 0.259 µM)
- IC50 A549 (non-small cell lung cancer) ([5]; 48 h): 0.39 µg/mL (≈ 0.297 µM)
- Percentage of release efficiency (%) Heart tissue ([6]; Table 5): 2.7%
- A2780 (ovarian cancer) mean tumor volume (mm^3) Day 1 [7]: 151.03 mm^3
- A2780 (ovarian cancer) mean tumor volume (mm^3) Day 4 [7]: 282.87 mm^3
- A2780 (ovarian cancer) mean tumor volume (mm^3) Day 7 [7]: 579.35 mm^3
- A2780 (ovarian cancer) mean tumor volume (mm^3) Day 10 [7]: 837.75 mm^3
- A2780 (ovarian cancer) mean tumor volume (mm^3) Day 14 [7]: 1135.00 mm^3
- Growth rate (%) of A2780 (ovarian cancer) on Day 14 [7]: 751.51%
- Mouse weight (%) on Day 14 [7]: +1.2%
- Percentage of release efficiency (%) Breast cancer tissue (SKBR3) ([8]; Table 5): 69.4%
- Percentage of release efficiency (%) Sarcoma tissue (SJSA1) ([9]; Table 5): 78.5%

Structure (SMILES): CCCN(CCc1c2c(nc3ccccc13)-c1cc3c(c(=O)n1C2)COC(=O)[C@]3(O)CC)C(=O)[C@H](CC(C)C)NC(=O)[C@H](CC(N)=O)NC(=O)[C@H](C)NC(=O)[C@H](C)NC(=O)CCOCCOCCOCCOCCOCCOCCNC(=O)CCN1C(=O)C=CC1=O [MI-6PEG-AANL-D3] ({Propanoyl(3-maleimido)-PEG6}-AANL-X4)
- Mouse weight (%) [1, 14]: +21%
- SJSA-1 (sarcoma tissue) growth rate (%) [1, 14]: 1207.54%
- SJSA-1 (sarcoma tissue) mean tumor volume (mm^3) [1, 14]: 1521.5 mm^3
- Mouse weight (%) [1, 15]: +16%
- SJSA-1 (sarcoma tissue) growth rate (%) [1, 15]: 941.15%
- SJSA-1 (sarcoma tissue) mean tumor volume (mm^3) [1, 15]: 1205.8 mm^3
- Percentage of release efficiency (%) Colorectal cancer tissue (colo320) [10]: 71.6%
- IC50 Colorectal cancer tissue (colo320) [11]: 3.28 µg/mL (≈ 2.54 µM)
- IC50 Breast cancer tissue (SKBR3) [2]: 2.56 µg/mL (≈ 1.99 µM)
- IC50 Sarcoma tissue (SJSA-1) [3]: 1.52 µg/mL (≈ 1.18 µM)
- IC50 Ovarian cancer tissue (A2780) [4]: 1.15 µg/mL (≈ 0.892 µM)
- IC50 Non-small cell lung cancer tissue (A549) [5]: 1.87 µg/mL (≈ 1.45 µM)
- Percentage of release efficiency (%) Heart tissue ([6]; Table 10): 3.9%
- A2780 (ovarian cancer) mean tumor volume (mm^3) Day 1 [7]: 134.07 mm^3
- A2780 (ovarian cancer) mean tumor volume (mm^3) Day 4 [7]: 387.76 mm^3
- A2780 (ovarian cancer) mean tumor volume (mm^3) Day 7 [7]: 768.59 mm^3
- A2780 (ovarian cancer) mean tumor volume (mm^3) Day 10 [7]: 998.38 mm^3
- A2780 (ovarian cancer) mean tumor volume (mm^3) Day 14 [7]: 1508.23 mm^3
- Growth rate (%) of A2780 (ovarian cancer) on Day 14 [7]: 1124.96%
- Mouse weight (%) on Day 14 [7]: +12.2%
- Percentage of release efficiency (%) Breast cancer tissue (SKBR3) ([8]; Table 10): 67.9%
- Percentage of release efficiency (%) Sarcoma tissue (SJSA1) ([9]; Table 10): 90%

Structure (SMILES): CCCCN(CCc1c2c(nc3ccccc13)-c1cc3c(c(=O)n1C2)COC(=O)[C@]3(O)CC)C(=O)[C@H](CC(C)C)NC(=O)[C@H](CC(N)=O)NC(=O)[C@H](C)NC(=O)[C@H](C)NC(=O)CCOCCOCCOCCOCCOCCOCCNC(=O)CCN1C(=O)C=CC1=O [MI-6PEG-AANL-D4] ({Propanoyl(3-maleimido)-PEG6}-AANL-X2)
- Mouse weight (%) [1, 14]: +19%
- SJSA-1 (sarcoma tissue) growth rate (%) [1, 14]: 1031.84%
- SJSA-1 (sarcoma tissue) mean tumor volume (mm^3) [1, 14]: 1289.8 mm^3
- Mouse weight (%) [1, 15]: +19%
- SJSA-1 (sarcoma tissue) growth rate (%) [1, 15]: 924.41%
- SJSA-1 (sarcoma tissue) mean tumor volume (mm^3) [1, 15]: 1149.5 mm^3
- Percentage of release efficiency (%) Colorectal cancer tissue (colo320) [10]: 76.5%
- IC50 Colorectal cancer tissue (colo320) [11]: 5.40 µg/mL (≈ 4.14 µM)
- IC50 Breast cancer tissue (SKBR3) [2]: 3.94 µg/mL (≈ 3.02 µM)
- IC50 Sarcoma tissue (SJSA-1) [3]: 2.94 µg/mL (≈ 2.26 µM)
- IC50 Ovarian cancer tissue (A2780) [4]: 2.47 µg/mL (≈ 1.89 µM)
- IC50 Non-small cell lung cancer tissue (A549) [5]: 3.72 µg/mL (≈ 2.85 µM)
- Percentage of release efficiency (%) Heart tissue ([6]; Table 10): 4%
- A2780 (ovarian cancer) mean tumor volume (mm^3) Day 1 [7]: 133.89 mm^3
- A2780 (ovarian cancer) mean tumor volume (mm^3) Day 4 [7]: 309.51 mm^3
- A2780 (ovarian cancer) mean tumor volume (mm^3) Day 7 [7]: 703.24 mm^3
- A2780 (ovarian cancer) mean tumor volume (mm^3) Day 10 [7]: 894.45 mm^3
- A2780 (ovarian cancer) mean tumor volume (mm^3) Day 14 [7]: 1345.03 mm^3
- Growth rate (%) of A2780 (ovarian cancer) on Day 14 [7]: 1004.58%
- Mouse weight (%) on Day 14 [7]: +14.5%
- Percentage of release efficiency (%) Breast cancer tissue (SKBR3) ([8]; Table 10): 75.3%
- Percentage of release efficiency (%) Sarcoma tissue (SJSA1) ([9]; Table 10): 81.2%

Structure (SMILES): CC[C@@]1(O)C(=O)OCc2c1cc1n(c2=O)Cc2c-1nc1ccccc1c2CCN(CC(C)C)C(=O)[C@H](CC(C)C)NC(=O)[C@H](CC(N)=O)NC(=O)[C@H](C)NC(=O)[C@H](C)NC(=O)CCOCCOCCOCCOCCOCCOCCNC(=O)CCN1C(=O)C=CC1=O [MI-6PEG-AANL-D5] ({Propanoyl(3-maleimido)-PEG6}-AANL-X5)
- Mouse weight (%) [1, 14]: +18%
- SJSA-1 (sarcoma tissue) growth rate (%) [1, 14]: 1069.02%
- SJSA-1 (sarcoma tissue) mean tumor volume (mm^3) [1, 14]: 1304.2 mm^3
- Mouse weight (%) [1, 15]: +17%
- SJSA-1 (sarcoma tissue) growth rate (%) [1, 15]: 933.13%
- SJSA-1 (sarcoma tissue) mean tumor volume (mm^3) [1, 15]: 1165.2 mm^3
- Percentage of release efficiency (%) Colorectal cancer tissue (colo320) [10]: 69.8%
- IC50 Colorectal cancer tissue (colo320) [11]: 2.42 µg/mL (≈ 1.86 µM)
- IC50 Breast cancer tissue (SKBR3) [2]: 2.20 µg/mL (≈ 1.69 µM)
- IC50 Sarcoma tissue (SJSA-1) [3]: 1.58 µg/mL (≈ 1.21 µM)
- IC50 Ovarian cancer tissue (A2780) [4]: 1.13 µg/mL (≈ 0.867 µM)
- IC50 Non-small cell lung cancer tissue (A549) [5]: 1.34 µg/mL (≈ 1.03 µM)
- Percentage of release efficiency (%) Heart tissue ([6]; Table 10): 5.5%
- A2780 (ovarian cancer) mean tumor volume (mm^3) Day 1 [7]: 134.01 mm^3
- A2780 (ovarian cancer) mean tumor volume (mm^3) Day 4 [7]: 254.52 mm^3
- A2780 (ovarian cancer) mean tumor volume (mm^3) Day 7 [7]: 612.55 mm^3
- A2780 (ovarian cancer) mean tumor volume (mm^3) Day 10 [7]: 730.28 mm^3
- A2780 (ovarian cancer) mean tumor volume (mm^3) Day 14 [7]: 1116.71 mm^3
- Growth rate (%) of A2780 (ovarian cancer) on Day 14 [7]: 833.30%
- Mouse weight (%) on Day 14 [7]: +7.9%
- Percentage of release efficiency (%) Breast cancer tissue (SKBR3) ([8]; Table 10): 70.2%
- Percentage of release efficiency (%) Sarcoma tissue (SJSA1) ([9]; Table 10): 77.5%

Reference: patent US20250235545A1, “POLYPEPTIDE CONJUGATE AND USE THEREOF” (SHANGHAI CHIXI BIOMEDICAL TECHNOLOGY CO., LTD, priority 2024, published 2025)
